{"source": "patent US12533350B2", "about": "“Use of melanocortin-1 receptor agonist” (TANABE PHARMA CORPORATION, priority 2022, dated 2026)", "key": {"[1]": {"system": "dermal fibroblasts from healthy donors", "experiment": "TGF-β-induced human fibroblast activation, healthy donors", "type": "cell-based", "conditions": "TGF-β 10 ng/mL, 24 hours", "source_text": "Full-thickness skin biopsies were obtained from clinically involved skin of patients affected by dcSSc, who were recruited from the Systemic sclerosis clinic within the Leeds Institute of Rheumatic and Musculoskeletal Medicine (UK). Control skin samples were from healthy donors. All patients with dcSSc and healthy donors provided written informed consent through the stratification for risk of progression in systemic sclerosis (STRIKE SSC), which had been approved by the North-East Research Ethic committee. Patients with SSc fulfilled the 2013 ACR/EULAR classification criteria for SSc and were classified as having dcSSc according to the LeRoy and Medsger criteria.\nDermal fibroblasts were isolated from the skin biopsy samples of healthy donors and SSc patients. The skin biopsy samples were minced with a scalpel, placed in plastic culture dishes and covered with Dulbecco's Modified Eagle Medium (DMEM) with 4.5 g/L glucose (Thermo Fisher Scientific) supplemented with 20% fetal calf serum (FCS, Thermo Fisher Scientific), 1% penicillin and streptomycin (Merck), and 1 μg/ml of amphotericin (Thermo Fisher Scientific) and cultured at 37° C. in a humidified atmosphere of 5% CO2. Additional growth medium was added after 3 days with no amphotericin. After 7 days, culture medium was replaced with medium containing 10% FCS and subsequently replenished every 2 to 3 days. When a visible outgrowth of cells was obtained, the fibroblasts were passaged. Briefly, cells were incubated with PBS containing 0.1% EDTA for 5 min, and then detached with trypsin-EDTA solution (Merck), and cultured until 70-80% confluent in DMEM (1 g/L glucose) supplemented with 10% FCS and 1% penicillin and streptomycin. After a subsequent passage, primary cells were retrovirally immortalized using human telomerase reverse transcriptase. […]\nTotal RNA was extracted using the Zymo quick RNA mini prep kit according to manufacturer's instructions (Zymo Research Corporation). […] Quantitative RT-PCR was performed in triplicates using SYBR Green RT-PCR Mastermix Kit (Thermo Fisher Scientific) and the ABI PRISM 7500 Fast Real Time PCR System (Applied Biosystems). […]\nFIGS. 5(A)-5(B) show the effect of Compound A on human fibroblast activation. Dermal fibroblasts from a healthy individual or an SSc patient were grown to confluence, and placed under starvation for 24 hours in a medium supplemented with 1% fetal bovine serum (A: mRNA expression of ACTA2 and COL1A1 in dermal fibroblasts of healthy individuals was measured by real-time PCR, and normalized for the GAPDH expression level. B: mRNA expression of ACTA2 and COL1A1 in dermal fibroblasts of SSc patients was measured for by real-time PCR, and normalized for the GAPDH expression level). Each bar represents the mean±SEM of the measured values from three wells. […]"}, "[2]": {"system": "serum proteins in BLM-induced SSc model", "conditions": "Compound A 10 mg/kg", "protocol": "Serum samples were obtained from mice of the BLM-induced SSc model (therapeutic evaluation). Samples from the saline_vehicle (control group without disease), BLM_vehicle (control group with disease), BLM_Compound A (10 mg/kg), and BLM_imatinib (150 mg/kg) groups were used for analysis. Using a Luminex assay (R&D systems), 110 proteins were investigated (supplemental Table s1). Proteins satisfying any of the following criteria were analyzed: i) all samples were adequately measured within the quantitative range; ii) more than half of the samples in one or more groups were quantified, although some samples were out of the quantitative range.\nUsing serum samples of mice to which 10 mg/kg of Compound A and 150 mg/kg of imatinib were administered, serum protein profiling was carried out in a BLM-induced SSc model (treatment model). Using a Luminex assay, 110 kinds of proteins were investigated."}, "[3]": {"system": "pre-established BLM-induced skin fibrosis"}, "[4]": {"conditions": "Compound A at 3 and 10 mg/kg orally once daily day 22-42, samples day 43"}}}
{"smiles": "COC[C@H]1CN(C(=O)[C@]2(F)CN(C3CCCC3)C[C@H]2c2ccc(OC)cc2)C[C@@H]1c1ccc(C(F)(F)F)cc1N1CCC(C(=O)O)CC1", "note": "[Compound A, 1-{2-[(3S,4R)-1-{[(3R,4R)-1-cyclopentyl-3-fluoro-4-(4-methoxyphenyl)pyrrolidin-3-yl]carbonyl}-4-(methoxymethyl)pyrrolidin-3-yl]-5-(trifluoromethyl)phenyl}piperidine-4-carboxylic acid]", "values": [{"measurement": "TGF-β-induced αSMA (ACTA2) mRNA elevation", "setting": "[1]; concentration-dependent, normalized to GAPDH", "result": "inhibited"}, {"measurement": "TGF-β-induced COL1A1 mRNA expression", "setting": "[1]; normalized to GAPDH", "result": "no effect"}, {"measurement": "TGF-β-induced increase in αSMA mRNA expression", "setting": "[1]; concentration of 1000 nmol/L", "result": "suppressed"}, {"measurement": "BLM-induced elevation of serum GDF-15", "setting": "[2]", "result": "significantly suppressed"}, {"measurement": "BLM-induced elevation of serum MMP-2", "setting": "[2]", "result": "significantly suppressed"}, {"measurement": "BLM-induced elevation of serum MMP-3", "setting": "[2]", "result": "significantly suppressed"}, {"measurement": "BLM-induced elevation of serum P-selectin", "setting": "[2]", "result": "significantly suppressed"}, {"measurement": "BLM-induced elevation of serum S100A9", "setting": "[2]", "result": "significantly suppressed"}, {"measurement": "BLM-induced elevation of serum TIMP-1", "setting": "[2]", "result": "significantly suppressed"}, {"measurement": "BLM-induced elevation of serum TNFRI", "setting": "[2]", "result": "significantly suppressed"}, {"measurement": "BLM-induced elevation of serum TNFRII", "setting": "[2]", "result": "significantly suppressed"}, {"measurement": "BLM-induced elevation of serum adiponectin", "setting": "[2]", "result": "significantly suppressed"}, {"measurement": "BLM-induced elevation of serum cystatin C", "setting": "[2]", "result": "significantly suppressed"}, {"measurement": "BLM-induced elevation of serum osteoprotegerin", "setting": "[2]", "result": "significantly suppressed"}, {"measurement": "BLM-induced increase of skin thickness", "setting": "[3]; [4]", "result": "significantly inhibited"}, {"measurement": "BLM-induced increase of αSMA-positive myofibroblasts in the dermis", "setting": "[3]; [4]", "result": "significantly inhibited"}, {"measurement": "BLM-induced loss of dermal white adipose tissue (Masson's trichrome staining)", "setting": "[3]; Compound A orally once daily day 22-42, samples day 43", "result": "inhibited"}, {"measurement": "progression of fibrosis after 3 weeks (versus group 2: BLM 3 weeks then saline 3 weeks)", "setting": "[3]; Compound A orally once daily during last 3 weeks of 6-week BLM", "result": "almost completely inhibited"}]}
